Measurements: patent US20140288052A1, “SUBSTITUTED BICYCLIC AZA-HETEROCYCLES AND ANALOGUES AS SIRTUIN MODULATORS” (GlaxoSmithKline, LLC, priority 2011, published 2014)

How the values were obtained:
[1] = target: T1, SIRT1 (Homo sapiens, UniProt Q96EB6); test: TAMRA based mass spectrometry assay of SIRT1 deacetylase activation; format: biochemical; conditions: TAMRA peptide substrate; for TAMRA EC1.5 (μM): concentration that results in 150% activation of SIRT1; for TAMRA % Fold Act: percent maximum fold activation relative to control (100%)
T1 sequence (Q96EB6 1-747): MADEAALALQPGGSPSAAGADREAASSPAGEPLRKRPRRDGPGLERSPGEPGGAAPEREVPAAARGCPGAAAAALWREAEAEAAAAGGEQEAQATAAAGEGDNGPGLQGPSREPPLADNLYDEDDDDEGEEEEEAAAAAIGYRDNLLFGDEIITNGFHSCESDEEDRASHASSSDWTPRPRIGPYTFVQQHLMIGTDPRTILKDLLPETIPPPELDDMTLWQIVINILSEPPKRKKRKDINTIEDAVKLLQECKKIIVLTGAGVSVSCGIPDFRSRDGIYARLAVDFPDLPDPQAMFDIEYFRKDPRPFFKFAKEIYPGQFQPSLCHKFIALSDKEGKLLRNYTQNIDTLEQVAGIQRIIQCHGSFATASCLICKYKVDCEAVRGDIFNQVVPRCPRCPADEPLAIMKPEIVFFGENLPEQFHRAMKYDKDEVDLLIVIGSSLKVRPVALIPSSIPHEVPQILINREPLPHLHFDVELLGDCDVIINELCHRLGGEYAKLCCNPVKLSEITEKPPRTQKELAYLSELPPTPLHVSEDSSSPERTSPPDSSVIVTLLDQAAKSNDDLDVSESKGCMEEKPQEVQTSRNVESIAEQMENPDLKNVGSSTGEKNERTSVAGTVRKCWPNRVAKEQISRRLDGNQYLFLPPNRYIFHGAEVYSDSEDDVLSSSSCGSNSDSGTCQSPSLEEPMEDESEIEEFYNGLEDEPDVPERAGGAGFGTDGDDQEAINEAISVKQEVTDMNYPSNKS
How it was run: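 E. coli-expressed N-terminal His-tagged human SIRT1 (10 nM) was incubated 25 min at 25 °C, pH 8 Tris-acetate buffer, with 0.5 μM TAMRA-labelled p53-derived acetyl-peptide, 120 μM NAD+ and varying compound; formic acid stop, mass-spec quantitation of deacetylated product vs DMSO controls. EC1.5 = concentration giving 150% activation.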

[2] = target: T1, SIRT1; test: Trp mass spectrometry assay of SIRT1 deacetylase activation; format: biochemical; conditions: Trp peptide substrate; for TRP EC1.5 (μM): concentration that results in 150% activation of SIRT1; for TRP % Fold Act: percent maximum fold activation relative to control (100%)
How it was run: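 His-tagged human SIRT1 (E. coli-expressed, 10 nM) was incubated with 0.5 μM Ac-RHKK(Ac)W-NH2 peptide and 120 μM βNAD+ for 25 min at 25 °C in HEPES pH 7.5, 1500 mM NaCl, with varying compound; formic acid quench. OAADPR or deacetylated peptide was quantified by mass spectrometry against DMSO control. EC1.5 (150% activation) and percent maximum activation were derived.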

Compound: O=C(Nc1ccnc2cc(-c3ccccc3C(F)(F)F)nn12)c1ncc(F)cc1F [Compound 116]
- TAMRA EC1.5 (μM) [1]: A (EC1.5<1 μM)
- TAMRA % Fold Act [1]: A (Fold activation≧350%)
- TRP EC1.5 (μM) [2]: C (EC1.5>25 μM)
- TRP % Fold Act [2]: B (Fold Activation<350%)

Compound: O=C(Nc1ccnc2cc(-c3ccccc3C(F)(F)F)nn12)c1cnc(O)cn1 [Compound 117]
- TAMRA EC1.5 (μM) [1]: A (EC1.5<1 μM)
- TAMRA % Fold Act [1]: A (Fold activation≧350%)
- TRP EC1.5 (μM) [2]: C (EC1.5>25 μM)
- TRP % Fold Act [2]: B (Fold Activation<350%)
